Measurements as given in publication PMC6509186, “Nontypeable Haemophilus influenzae Has Evolved Preferential Use of N-Acetylneuraminic Acid as a Host Adaptation” (mBio, 2019).
Where two headings read alike, the source gives them in different places.

Molecular target: T1, CMP-Neu5Ac synthetase (SiaB) (Haemophilus influenzae, UniProt Q57140)
T1 construct: gene neuA; full-length siaB in pET51-Ek/LIC, N-terminal 6xHis tag (so in the source) kept; expressed in E. coli, Talon purified; 24,800 Da; amine-coupled to CM5 chip
Experiment: surface plasmon resonance, immobilised SiaB
Type: binding

[1] = 20 mM MgCl2, 0.2 M MOPS, pH 8.1, 37°C, enzyme amine-coupled to CM5 chip

Nc1ccn([C@@H]2O[C@H](COP(=O)(O)OP(=O)(O)OP(=O)(O)O)[C@@H](O)[C@H]2O)c(=O)n1 [CTP]
Kd: > 200 µM

CC(=O)N[C@H]1[C@H]([C@H](O)[C@H](O)CO)OC(O)(C(=O)O)C[C@@H]1O (stereo partly drawn) [Neu5Ac]
Kd [1]: 0.0012 µM

O=C(CO)N[C@H]1[C@H]([C@H](O)[C@H](O)CO)OC(O)(C(=O)O)C[C@@H]1O (stereo partly drawn) [Neu5Gc]
Kd [1]: 1 µM
